In one data set the test system is Plasmodium berghei ANKA. As to the kind of experiment: Plasmodium berghei ANKA infection (cerebral malaria model) in C57BL/6J mice, parasitemia and survival. Format: in vivo. As to conditions: Cysteamine alone. Here is the method: FIGS. 8A and 8B show the results of two independent experiments on the effect of cysteamine and artesunate combinations on the progression of Plasmodium berghei ANKA infection (parasitemia). Groups of 5 adult 18-20 g C57BL/6J males and females were infected intravenously with 1×10^6 erythrocytes parasitized with P. berghei ANKA at time “0”. Two hours later, mice were injected i.p with either Artemisinin alone or with Artemisinin/Cysteamine combinations (at the indicated concentrations in mg/kg body weight). In the case of the latter, Artemisinin was injected first in one quadrant, and cysteamine was injected second, 10-15 minutes later in another quadrant. The drug treatment was further repeated at days 1, 2 and 3 post-infection to emulate the standard 4-day test used in anti-malarial drug discovery. Starting at day 5, blood was collected, thin blood smears were prepared, and parasitemia was determined (400 erythrocytes counted, expressed as percentage parasitized erythrocytes). Error bars show standard deviations on the mean; and
FIGS. 9A and 9B show the results of two independent experiments on the effect of cysteamine and artesunate combinations on the survival of Plasmodium berghei ANKA-infected mice. Infection and drug administration were performed as described above for FIGS. 8A and 8B. Animals were monitored for the appearance and severity of cerebral symptoms (CM phase, shown as rectangle in graph), and moribund animals were euthanized, and time of death was recorded.
Intravenous infection with Plasmodium berghei ANKA is an accepted mouse model of cerebral malaria (CM) (Hunt, N. H. et al. 2006, Int. J. Parasitol. 36: 569-582). The infection causes the following pathology. First, there is appearance of blood parasitemia, starting at days 3 or 4, which can go up to 10% by day 7-8. Starting at day 5-6, there is emergence of cerebral symptoms caused by permeability of the blood brain barrier, concomitant to trapping of parasitized red cells in the microvasculature and acute pathological host inflammatory response in situ. This cerebral phase quickly progresses from tremors, to paralysis, to coma, and is uniformly lethal in mice by days 8-10. In this model, progress of infection and possibly drug effects may be monitored by a) appearance and intensity of blood parasitemia (between days 5-8), b) appearance of cerebral symptoms, and c) lethality.

Another data set is described as follows: in vivo. As to conditions: mouse. Also noted: species or system mice. Here is the method: Cysteamine was detected in plasma by high performance liquid chromatography analysis with ultraviolet detection (Dias V C, et al. (1998) Clin Chem 44: 2199-2201). Briefly, blood was collected in EDTA/heparin-containing tubes, and plasma was obtained by centrifugation. Plasma thiols were reduced by treatment with Tris(2-carboxyethyl)phosphine (0.05M final concentration, 20 min. at 20° C.), and proteins were precipitated with tri-chloroacetic acid (TCA, 10% final concentration). Free thiols from the protein-free supernatant were derivatized using SBD-F ([…]), used at a final concentration of 0.2 mg/ml (1 hr at 60° C.) in 0.05 M borate buffer (pH 9.5). The mixture was then analyzed by HPLC: the mobile phase consisted of an aqueous solvent (0.1M acetic acid, 0.1 sodium acetate, pH 4.3) running on a Supelco™ LC-8 column, and elution of plasma analytes was with a 0-10% acetonitrile gradient. Detection of SBD-F derivatized analytes was by reading fluorescence at 515 nm (excitation at 385 nm). Cysteamine elution peaks were quantified (surface area), and plasma concentrations were calculated using a set of internal cysteamine standards processed at the same time. Area under the curve (AUCt0-tlast) was calculated using the trapezoid approximation method.
To gain more insight into the anti-malarial effect of cysteamine (Cys) in vivo, the pharmacokinetic characteristics (plasma level) of Cys administered through the sub-cutaneous (s.c.) and intra-peritoneal (i.p) routes was compared. […] To determine which pharmacokinetic parameter (AUC vs. Cmax) is important for efficacy against Plasmodium, the i.p. and s.c. routes of injection were compared in a continuous treatment regimen, starting one day prior to infection (10^5 pRBC of P. chabaudi, i.v.) and continuing daily for 7 days. Parasitemia was monitored on thin blood smears at days 5, 6 and 7 following infection (FIG. 1B). Treatment of infected animals with 120 mg/kg of Cys administered either s.c. or i.p. caused a highly significant (p<0.01) 50% reduction in parasitemia at day 5 and 6, relative to saline injected controls.
It was next determined whether Cys at equivalent dosing to that used in the clinical treatment of nephropathic cystinosis in humans has an effect on the course and severity of P. chabaudi infection in mice. In cystinosis patients, Cys is given orally as Cys bitartrate (Cystagon®). […] The efficacy of different regimens of 50 mg/kg Cys s.c. (number of injections, interval between injections) on replication of P. chabaudi in vivo was evaluated. P. chabaudi-infected mice were treated daily, starting at day −1 and continuing to day 10, with either 1×150 mg/kg, 3×50 mg/kg given at 2 hr intervals, 4×50 mg/kg given at 2 hr intervals or 3×50 mg/kg given at 1 hr intervals of Cys, and blood parasitemia was monitored at days 5, 6 and 7 (FIG. 2B).

Structures are written as SMILES.

Take `NCCS` [Cysteamine]: in the data set with Plasmodium berghei ANKA, the “effect on survival of P. berghei-infected animals” value is recorded as “minor positive effect on survival”. In the data set “in vivo” (ip, 120 mg/kg), the AUC was 405 µM·h, the Cmax came to 665 µM and the time to peak (Tmax) is below 5 min. In addition, in “in vivo” (sc, 50 mg/kg), the AUC was 47.4 µM·h and the highest concentration (Cmax) was around 80 µM. In “in vivo” (sc, 120 mg/kg), the AUC was 255 µM·h, the highest concentration (Cmax) is 250 µM and the Tmax is 30 min.

The values above are taken from patent US9278086B2, “Combination therapy and uses thereof for treatment and prevention of parasitic infection and disease” (The Royal Institution for the Advancement of …, priority 2010, dated 2016).
